Results as given in ChEMBL document CHEMBL4138123, “Design, synthesis and biological evaluation of novel pyrazolochalcones as potential modulators of PI3K/Akt/mTOR pathway and inducers of apoptosis in breast cancer cells” (Eur J Med Chem, 2017).

Experiments:
Format in all cases: functional
[1] = system: CCRF-CEM; experiment: Cytotoxicity against human CCRF-CEM cells assessed as cell growth at 100 uM after 48 hrs by sulforhodamine B assay relative to control; settings: read-out: Activity
[2] = system: MCF7; experiment: Cytotoxicity against human MCF7 cells assessed as growth inhibition after 48 hrs by sulforhodamine B assay; settings: MCF7, 48 h
[3] = system: SW-620; experiment: Cytotoxicity against human SW620 cells assessed as cell growth at 100 uM after 48 hrs by sulforhodamine B assay relative to control; settings: SW-620, 48 h, read-out: Activity
[4] = system: KM12; experiment: Cytotoxicity against human KM12 cells assessed as growth inhibition after 48 hrs by sulforhodamine B assay; settings: KM12, 48 h
[5] = system: ACHN; experiment: Cytotoxicity against human ACHN cells assessed as cell growth at 100 uM after 48 hrs by sulforhodamine B assay relative to control; settings: read-out: Activity
[6] = system: SN12C; experiment: Cytotoxicity against human SN12C cells assessed as growth inhibition after 48 hrs by sulforhodamine B assay
[7] = system: BT-549; experiment: Cytotoxicity against human BT549 cells assessed as cell growth at 0.1 uM after 48 hrs by sulforhodamine B assay relative to control; settings: BT-549, 48 h, read-out: Activity
[8] = system: ACHN; experiment: Cytotoxicity against human ACHN cells assessed as growth inhibition after 48 hrs by sulforhodamine B assay
[9] = system: SNB-75; experiment: Cytotoxicity against human SNB75 cells assessed as growth inhibition after 48 hrs by sulforhodamine B assay; settings: SNB-75, 48 h
[10] = system: A498; experiment: Cytotoxicity against human A498 cells assessed as cell growth at 0.1 uM after 48 hrs by sulforhodamine B assay relative to control; settings: A498, 48 h, read-out: Activity
[11] = system: SK-OV-3; experiment: Cytotoxicity against human SKOV3 cells assessed as cell growth at 1 uM after 48 hrs by sulforhodamine B assay relative to control; settings: SK-OV-3, 48 h, read-out: Activity
[12] = system: HT-29; experiment: Cytotoxicity against human HT-29 cells assessed as cell growth at 100 uM after 48 hrs by sulforhodamine B assay relative to control; settings: HT-29, 48 h, read-out: Activity
[13] = system: UACC-62; experiment: Cytotoxicity against human UACC62 cells assessed as cell growth at 1 uM after 48 hrs by sulforhodamine B assay relative to control; settings: UACC-62, 48 h, read-out: Activity
[14] = system: 786-0; experiment: Cytotoxicity against human 786-0 cells assessed as cell growth at 100 uM after 48 hrs by sulforhodamine B assay relative to control; settings: 786-0, 48 h, read-out: Activity
[15] = system: SR; experiment: Cytotoxicity against human SR cells assessed as cell growth at 0.01 uM after 48 hrs by sulforhodamine B assay relative to control; settings: read-out: Activity
[16] = system: RPMI-8226; experiment: Cytotoxicity against human RPMI8226 cells assessed as cell growth at 10 uM after 48 hrs by sulforhodamine B assay relative to control; settings: RPMI-8226, 48 h, read-out: Activity
[17] = system: NCI/ADR-RES; experiment: Cytotoxicity against human NCI/ADR-RES cells assessed as cell growth at 100 uM after 48 hrs by sulforhodamine B assay relative to control; settings: read-out: Activity
[18] = system: UO-31; experiment: Cytotoxicity against human UO31 cells assessed as cell growth at 0.01 uM after 48 hrs by sulforhodamine B assay relative to control; settings: UO-31, 48 h, read-out: Activity
[19] = system: PC-3; experiment: Cytotoxicity against human PC3 cells assessed as growth inhibition after 48 hrs by sulforhodamine B assay; settings: PC-3, 48 h
[20] = system: Malme-3M; experiment: Cytotoxicity against human MALME-3M cells assessed as cell growth at 0.1 uM after 48 hrs by sulforhodamine B assay relative to control; settings: read-out: Activity
[21] = system: Malme-3M; experiment: Cytotoxicity against human MALME-3M cells assessed as cell growth at 1 uM after 48 hrs by sulforhodamine B assay relative to control; settings: read-out: Activity
[22] = system: SK-OV-3; experiment: Cytotoxicity against human SKOV3 cells assessed as cell growth at 10 uM after 48 hrs by sulforhodamine B assay relative to control; settings: SK-OV-3, 48 h, read-out: Activity
[23] = system: NCI/ADR-RES; experiment: Cytotoxicity against human NCI/ADR-RES cells assessed as cell growth at 0.01 uM after 48 hrs by sulforhodamine B assay relative to control; settings: read-out: Activity
[24] = system: RXF 393; experiment: Cytotoxicity against human RXF393 cells assessed as cell growth at 0.01 uM after 48 hrs by sulforhodamine B assay relative to control; settings: RXF 393, 48 h, read-out: Activity
[25] = system: SW-620; experiment: Cytotoxicity against human SW620 cells assessed as cell growth at 10 uM after 48 hrs by sulforhodamine B assay relative to control; settings: SW-620, 48 h, read-out: Activity
[26] = system: SW-620; experiment: Cytotoxicity against human SW620 cells assessed as cell growth at 0.1 uM after 48 hrs by sulforhodamine B assay relative to control; settings: SW-620, 48 h, read-out: Activity
[27] = system: MCF7; experiment: Cytotoxicity against human MCF7 cells assessed as cell growth at 10 uM after 48 hrs by sulforhodamine B assay relative to control; settings: MCF7, 48 h, read-out: Activity
[28] = system: UACC-257; experiment: Cytotoxicity against human UACC257 cells assessed as cell growth at 1 uM after 48 hrs by sulforhodamine B assay relative to control; settings: UACC-257, 48 h, read-out: Activity
[29] = system: T47D; experiment: Cytotoxicity against human T47D cells assessed as growth inhibition after 48 hrs by sulforhodamine B assay
[30] = system: MDA-MB-468; experiment: Cytotoxicity against human MDA-MB-468 cells assessed as cell growth at 1 uM after 48 hrs by sulforhodamine B assay relative to control; settings: MDA-MB-468, 48 h, read-out: Activity
[31] = system: K562; experiment: Cytotoxicity against human K562 cells assessed as cell growth at 10 uM after 48 hrs by sulforhodamine B assay relative to control; settings: K562, 48 h, read-out: Activity
[32] = system: NCI-H23; experiment: Cytotoxicity against human NCI-H23 cells assessed as cell growth at 100 uM after 48 hrs by sulforhodamine B assay relative to control; settings: NCI-H23, 48 h, read-out: Activity
[33] = system: A549; experiment: Cytotoxicity against human A549/ATCC cells assessed as cell growth at 10 uM after 48 hrs by sulforhodamine B assay relative to control; settings: A549, 48 h, read-out: Activity
[34] = system: NCI-H460; experiment: Cytotoxicity against human NCI-H460 cells assessed as cell growth at 0.01 uM after 48 hrs by sulforhodamine B assay relative to control; settings: NCI-H460, 48 h, read-out: Activity
[35] = system: MDA-MB-435; experiment: Cytotoxicity against human MDA-MB-435 cells assessed as cell growth at 100 uM after 48 hrs by sulforhodamine B assay relative to control; settings: MDA-MB-435, 48 h, read-out: Activity
[36] = system: HL-60(TB); experiment: Cytotoxicity against human HL-60(TB) cells assessed as growth inhibition after 48 hrs by sulforhodamine B assay; settings: HL-60, 48 h

## COc1ccc(-c2cc(/C=C/C(=O)c3ccc(N)cc3)[nH]n2)cc1
[1]
  growth at 100 µM: -68%
[2]
  GI50: 780 nM
  LC50: 34.1 µM
  TGI: 3840 nM
[3]
  growth at 100 µM: -58%
[4]
  GI50: 1540 nM
  LC50: 7.61 µM
  TGI: 3.42 µM
[5]
  growth at 100 µM: -73%
[6]
  GI50: 1890 nM
  LC50: 34.9 µM
  TGI: 6.63 µM
[7]
  growth at 0.1 µM: 96%
[8]
  GI50: 2010 nM
  LC50: 49.2 µM
  TGI: 10.6 µM
[9]
  GI50: 2250 nM
  LC50 (concentration killing 50% of cells): 35.3 µM
  TGI: 11.4 µM
[10]
  growth at 0.1 µM: 97%
[11]
  growth at 1 µM: 105%
[12]
  growth at 100 µM: -56%
[13]
  growth at 1 µM: 79%
[14]
  growth at 100 µM: -57%
[15]
  growth at 0.01 µM: 94%
[16]
  growth at 10 µM: -35%
[17]
  growth at 100 µM: -38%
[18]
  growth at 0.01 µM: 90%
[19]
  GI50: 2420 nM
  LC50: 39.8 µM
  TGI: 10.1 µM
[20]
  growth at 0.1 µM: 86%
[21]
  growth at 1 µM: 87%
[22]
  growth at 10 µM: 23%
[23]
  growth at 0.01 µM: 101%
[24]
  growth at 0.01 µM: 95%
[25]
  growth at 10 µM: -26%
[26]
  growth at 0.1 µM: 101%
[27]
  growth at 10 µM: -30%
[28]
  growth at 1 µM: 90%
[29]
  GI50: 1470 nM
  LC50: 85.8 µM
  TGI: 9.77 µM
[30]
  growth at 1 µM: 29%
[31]
  growth at 10 µM: 4%
[32]
  growth at 100 µM: -62%
[33]
  growth at 10 µM: 1%
[34]
  growth at 0.01 µM: 101%
[35]
  growth at 100 µM: -75%
[36]
  GI50: 1430 nM
  LC50: > 100 µM
  TGI: 7.71 µM

## COc1ccc(-c2cc(/C=C/C(=O)c3ccc(OC)c(OC)c3)[nH]n2)cc1
[1]
  growth at 100 µM: -47%
[2]
  GI50: 410 nM
  LC50: 5.11 µM
  TGI: 1760 nM
[3]
  growth at 100 µM: -55%
[4]
  GI50: 1380 nM
  LC50: 7.01 µM
  TGI: 3.11 µM
[5]
  growth at 100 µM: -98%
[6]
  GI50: 1640 nM
  LC50: 8.73 µM
  TGI: 3.78 µM
[7]
  growth at 0.1 µM: 105%
[8]
  GI50: 1680 nM
  LC50: 8.71 µM
  TGI: 3.83 µM
[9]
  GI50: 1550 nM
  LC50 (concentration killing 50% of cells): 9.51 µM
  TGI: 3.84 µM
[10]
  growth at 0.1 µM: 79%
[11]
  growth at 1 µM: 112%
[12]
  growth at 100 µM: -81%
[13]
  growth at 1 µM: 85%
[14]
  growth at 100 µM: -96%
[15]
  growth at 0.01 µM: 100%
[16]
  growth at 10 µM: -56%
[17]
  growth at 100 µM: -22%
[18]
  growth at 0.01 µM: 86%
[19]
  GI50: 1450 nM
  LC50: 8.3 µM
  TGI: 3.46 µM
[20]
  growth at 0.1 µM: 89%
[21]
  growth at 1 µM: 82%
[22]
  growth at 10 µM: 29%
[23]
  growth at 0.01 µM: 102%
[24]
  growth at 0.01 µM: 82%
[25]
  growth at 10 µM: -52%
[26]
  growth at 0.1 µM: 99%
[27]
  growth at 10 µM: -82%
[28]
  growth at 1 µM: 87%
[29]
  GI50: 1600 nM
  LC50: 24.9 µM
  TGI: 5.15 µM
[30]
  growth at 1 µM: 61%
[31]
  growth at 10 µM: 1%
[32]
  growth at 100 µM: -73%
[33]
  growth at 10 µM: -23%
[34]
  growth at 0.01 µM: 100%
[35]
  growth at 100 µM: -91%
[36]
  GI50: 2180 nM
  LC50: > 100 µM
  TGI: 6.4 µM
